Patent US20060014740A1 (priority 2003, published 2006)
pIC50: −log10 of the molar value. Structures can show the parent of a compound that is named as a salt. Where two headings read alike, the source gives them in different places. Blank lines part the entries; values can stand above or below the compound they belong to.

Key:
[1] = test system: AKT phosphorylation (Pi-AKT) in LNCaP cells; test: AKT phosphorylation by Western blot in LNCaP cells; assay type: cell-based, human
Protocol: As another assessment of cytotoxicity, AKT inhibition was measured. […] The immunoblots were visualized by enhanced, chemiluminescence, and changes of relative levels of phospho-AKT compared to total AKT by analog treatment were quantified by densitometric analysis.
Prostate cell line LNCaP cells were treated with 30 μM of the compound of Formula: [drawing 54]
for the indicated period and time. The active form of AKT (Pi-AKT) and the β-Actin were quantified by Western blot analysis. […]
Prostate cell line LNCaP cells were treated with 10 μM of the compound of Formula: [drawing 55]
for the indicated period and time. The active form of AKT (Pi-AKT) and AKT were quantified by Western blot analysis. […]
Prostate cell line LNCaP cells were treated with 10 μM of the compound of Formula [drawing 56]
for the indicated period and time. The active form of AKT (Pi-AKT), AKT and β-Actin were quantified by Western blot analysis. […]

[2] = test system: LNCaP human prostate cancer cells; test: SRB cytotoxicity assay, LNCaP; assay type: cell-based; details: Homo sapiens
Protocol: (§1) For in vitro cytotoxicity screening, 1000 to 5000 cells were plated into each well of 96-well plates depending on growth rate, and exposed to different concentrations of a test compound for 96 h in three to five replicates. All the compounds were dissolved in dimethyl sulfoxide at 5 to 20 mM, and diluted to desired concentrations in complete culture medium. Cell numbers at the end of the drug treatment were measured by the SRB assay (Gududuru et al., “Synthesis and Biological Evaluation of Novel Cytotoxic Phospholipids for Prostate Cancer,” Bioorg. Med. Chem. Lett. 14:4919-4923 (2004); Rubinstein et at., “Comparison of in vitro Anticancer-Drug-Screening Data Generated with a Tetrazolium Assay Versus a Protein Assay Against a Diverse Panel of Human Tumor Cell Lines,” J. Naatl, Cancer Inst. 82:1113-1118 (1990), each of which is hereby incorporated by reference in its entirety). Briefly, the cells were fixed with 10% of trichloroacetic acid, stained with 0.4% SRB, and the absorbances at 540 nm was measured using a plate reader (DYNEX Technologies, Chantilly, Va.).
(§2) The antiproliferative activity of all the synthesized compounds was evaluated against five human prostate cancer cell lines and in RH7777 cells (negative control) using the sulforhodamine B (SRB) assay (see description in Example 5 above).
(§3) The chosen cell lines represent different basal levels of active AKT and LPL receptor expression (discussed later). Cells were exposed to a wide range of concentrations (0 to 100 μM) of the indicated compound for 96 h. Cell numbers at the end of treatment were measured using the sulforhodamine B (SRB) assay^5.
(§4) Cells were exposed to a wide range of concentrations (0 to 100 μM) of the particular compound for 96 h in 96 well plates. Cells were fixed with 10% trichloroacetic acid, washed five times with water. The plates were air dried overnight and fixed cells were stained with SRB solution. The cellular protein-bound SRB was measured at 540 nm using a plate reader. Cell numbers at the end of the treatment were measured.
as §4, with “96-well” for “96 well”, “calculated as a percentage of untreated control.” for “measured.”

[3] = test system: PPC-1 human prostate cancer cells; test: SRB cytotoxicity assay, PPC-1; assay type: cell-based; details: Homo sapiens, PPC-1, 96 h, read-out: IC50 PPC-1
Protocol: (§5) Dr. Mitchell Steiner at University of Tennessee Health Science Center, kindly provided PPG-1 and TSU-PrI cells.
as §1, §2, §3, §4
as §4, with “96-well” for “96 well”, “calculated as a percentage of untreated control.” for “measured.”

[4] = test system: DU-145 human prostate cancer cells; test: SRB cytotoxicity assay, DU-145; assay type: cell-based; details: Homo sapiens, 96 h
Protocol: as §1, §2, §3, §4
as §4, with “96-well” for “96 well”, “calculated as a percentage of untreated control.” for “measured.”

[5] = test system: human breast cancer cell line (MCF-7); test: SRB cytotoxicity assay, MCF-7; assay type: cell-based; details: Homo sapiens, MCF7, read-out: IC50 MCF-7
Protocol: as §1
In vitro cytotoxicity assay was performed by the same sulforhodamine B (SRB) assay (described above). The compounds shown in Table 8 below where tested for activity against the breast cancer and ovarian cancer cell lines.
as §3, §4

[6] = test system: PC-3 human prostate cancer cells; test: SRB cytotoxicity assay, PC-3; assay type: cell-based; details: Homo sapiens, 96 h, read-out: IC50 PC-3
Protocol: as §1, §2, §3, §4
as §4, with “96-well” for “96 well”, “calculated as a percentage of untreated control.” for “measured.”

[7] = test system: RH7777 rat hepatoma cells; test: SRB cytotoxicity assay, RH7777 control cell line; assay type: cell-based; details: Rattus norvegicus, RH7777, read-out: IC50 RH7777
Protocol: as §1, §2, §3, §4
as §4, with “96-well” for “96 well”, “calculated as a percentage of untreated control.” for “measured.”

[8] = test system: TSU-Pr1 human prostate cancer cells; test: SRB cytotoxicity assay, TSU-Pr1; assay type: cell-based; details: Homo sapiens, TSU-Pr1, 96 h, read-out: IC50 TSU-Pr1
Protocol: as §5, §1, §2, §3, §4
as §4, with “96-well” for “96 well”, “calculated as a percentage of untreated control.” for “measured.”

[9] = stated in the text of the LNCaP AKT experiments (Examples 12-14), test of the IC50 not named, read-out: IC50
[10] = Example 14, 10 μM, 1 h, (−) control 1.00
[11] = DU-145, read-out: IC50 DU-145, Table 3
[12] = Table 8, breast cancer cell line
[13] = LNCaP, Table 3, 96 h, read-out: IC50 LNCaP
[14] = Table 3, control cell line, 96 h
[15] = DU-145, read-out: IC50 DU-145, Table 4
[16] = LNCaP, Table 4, 96 h, read-out: IC50 LNCaP
[17] = Table 4, control cell line, 96 h

Structure (SMILES): CCCCCCCCCCCCCCCCCCNC(=O)[C@H](CO)NC(=O)OC(C)(C)C
- Relative abundance (Pi-AKT/β-Actin) ([1]; 30 μM, 1 h, (−) control 1.00): 1.29
- Relative abundance (Pi-AKT/β-Actin) ([1]; 30 μM, 2 h): 1.01
- Relative abundance (Pi-AKT/β-Actin) ([1]; 30 μM, 6 h): 0.71
- Relative abundance (Pi-AKT/β-Actin) ([1]; 30 μM, 12 h): 0.50
- Relative abundance (Pi-AKT/β-Actin) ([1]; 30 μM, 24 h): 0.32
- Relative abundance (Pi-AKT/β-Actin) ([1]; 30 μM, 48 h): <0.10
- Relative abundance (Pi-AKT/β-Actin) ([1]; 30 μM, 72 h): <0.10
- AKT phosphorylation inhibited to ([1]; 30 μM, by 12 hours of treatment): 50%
- pIC50 [2, 9]: 4.99

Structure (SMILES): CCCCCCCCCCCCCCCCCCNC[C@H](CO)NC.Cl
- Time to almost complete inhibition of AKT phosphorylation ([1]; Example 14, 10 μM): ≤ 1 h
- Relative abundance (Pi-AKT/AKT) [1, 10]: 0.07
- Relative abundance (Pi-AKT/β-Actin) [1, 10]: 0.08
- Relative abundance (Pi-AKT/AKT) ([1]; Example 14, 10 μM, 2 h): 0.06
- Relative abundance (Pi-AKT/β-Actin) ([1]; Example 14, 10 μM, 2 h): 0.06
- Relative abundance (Pi-AKT/AKT) ([1]; Example 14, 10 μM, 3 h): 0.04
- Relative abundance (Pi-AKT/β-Actin) ([1]; Example 14, 10 μM, 3 h): 0.04
- Relative abundance (Pi-AKT/AKT) ([1]; Example 14, 10 μM, 4 h): 0.12
- Relative abundance (Pi-AKT/β-Actin) ([1]; Example 14, 10 μM, 4 h): 0.11
- Relative abundance (Pi-AKT/AKT) ([1]; Example 14, 10 μM, 6 h): 0.12
- Relative abundance (Pi-AKT/β-Actin) ([1]; Example 14, 10 μM, 6 h): 0.10
- Relative abundance (Pi-AKT/AKT) ([1]; Example 14, 10 μM, 8 h): 0.14
- Relative abundance (Pi-AKT/β-Actin) ([1]; Example 14, 10 μM, 8 h): 0.11
- Relative abundance (Pi-AKT/AKT) ([1]; Example 14, 10 μM, 10 h): 0.14
- Relative abundance (Pi-AKT/β-Actin) ([1]; Example 14, 10 μM, 10 h): 0.43

- melting point: 60 °C
Structure (SMILES): CCCCCCCCCCCCCCCCCCNC(=O)[C@@H]1CSC(C2CCCCC2)N1 (mixture of isomers) [Compound 8, (2RS, 4R)-2-Cyclohexylthiazolidine-4-carboxylic acid octadecylamide]
- pIC50 ([3]; Table 3): 5.03
- pIC50 [4, 11]: < 4.70
- pIC50 [5, 12]: ~4.70
- pIC50 ([6]; Table 3): < 4.70
- pIC50 [2, 13]: 4.89
- pIC50 [7, 14]: < 4.70
- pIC50 ([8]; Table 3): < 4.70

- melting point: 80 °C
Structure (SMILES): CCCCCCCCCCCCCCCCCCNC(=O)[C@@H]1CSC(Cc2ccccc2)N1 (mixture of isomers) [Compound 9, (2RS, 4R)-2-Benzylthiazolidine-4-carboxylic acid octadecylamide]
- pIC50 ([3]; Table 3): 5.40
- pIC50 [4, 11]: 4.82
- pIC50 [5, 12]: 4.73
- pIC50 ([6]; Table 3): 4.79
- pIC50 [2, 13]: 5.36
- pIC50 [7, 14]: < 4.70
- pIC50 ([8]; Table 3): 4.95

- melting point: 125 °C
Structure (SMILES): CCCCCCCCCCCCCCCCCCNC(=O)[C@@H]1CSC(c2c[nH]c3ccccc23)N1 (mixture of isomers) [Compound 10, (2RS, 4R)-2-(1H-Indol-3yl)-thiazolidine-4-carboxylic acid octadecylamide]
- pIC50 ([3]; Table 3): 5.89
- pIC50 [4, 11]: 5.05
- pIC50 ([6]; Table 3): 4.94
- pIC50 [2, 13]: 5.68
- pIC50 [7, 14]: < 4.70
- pIC50 ([8]; Table 3): 5.36

- melting point: 94 °C
Structure (SMILES): CCCCCCCCCCCCCCCCCCNC(=O)[C@@H]1CSC(c2cccnc2)N1 (mixture of isomers) [Compound 11, (2RS, 4R)-2-Pyridin-3-yl-thiazolidine-4-carboxylic acid octadecylamide]
- pIC50 ([3]; Table 3): 5.54
- pIC50 [4, 11]: 5.12
- pIC50 [5, 12]: 5.03
- pIC50 ([6]; Table 3): 5.04
- pIC50 [2, 13]: 5.44
- pIC50 [7, 14]: 4.98
- pIC50 ([8]; Table 3): 5.11

- melting point: 113 °C
Structure (SMILES): CCCCCCCCCCCCCCCCCCNC(=O)[C@@H]1CSC(c2cc(F)cc(F)c2)N1 (mixture of isomers) [Compound 23, (2RS, 4R)-2-(3,5-Difluoro-phenyl)-thiazolidine-4-carboxylic acid octadecylamide]
- pIC50 ([3]; Table 4): 4.97
- pIC50 [4, 15]: < 4.70
- pIC50 ([6]; Table 4): < 4.70
- pIC50 [2, 16]: 4.95
- pIC50 [7, 17]: < 4.70
- pIC50 ([8]; Table 4): < 4.70

Structure (SMILES): CCCCCCCCCCCCCCCCCCNC(=O)[C@@H]1CSC(c2c(Cl)cccc2Cl)N1 (mixture of isomers) [Compound 24, (2RS, 4R)-2-(2,6-Dichloro-phenyl)-thiazolidine-4-carboxylic acid octadecylamide]
- pIC50 ([3]; Table 4): 4.77
- pIC50 [4, 15]: < 4.70
- pIC50 [5, 12]: 4.75
- pIC50 ([6]; Table 4): < 4.70
- pIC50 [2, 16]: 4.88
- pIC50 [7, 17]: < 4.70
- pIC50 ([8]; Table 4): ~4.70

Structure (SMILES): CCCCCCCCCCCCCCCCCCNC(=O)[C@@H]1CSC(c2ccc(-c3ccccc3)cc2)N1 (mixture of isomers) [Compound 27-HCI, (2RS, 4R)-2-Biphenyl-4-yl-thiazolidine-4-carboxylic acid octadecylamide Hydrochloride]
- pIC50 ([3]; Table 4): < 4.70
- pIC50 [4, 15]: < 4.70
- pIC50 [5, 12]: < 4.70
- pIC50 ([6]; Table 4): < 4.70
- pIC50 [2, 16]: < 4.70
- pIC50 [7, 17]: < 4.70
- pIC50 ([8]; Table 4): < 4.70

Structure (SMILES): CCCCCCCCCCCCCCCCCCCCNC[C@@H](N)CO [S4]
- pIC50 ([3]; Example 10 table): 5.72
- pIC50 ([4]; DU-145, read-out: IC50 DU-145, Example 10 table): 5.39
- pIC50 ([5]; Example 10 table, 96 h): 5.34
- pIC50 ([6]; Example 10 table): 5.59
- pIC50 ([2]; LNCaP, Example 10 table, 96 h, read-out: IC50 LNCaP): 5.29
- pIC50 ([7]; Example 10 table, 0 to 100 μM for 96 h): 5.54
- pIC50 ([8]; Example 10 table): 5.66

Structure (SMILES): CCCCCCCCCCCCCCCCCCNC[C@H](CO)NC [drawing 51]
- pIC50 ([3]; Example 11 table): < 4.00
- pIC50 ([4]; DU-145, Example 11 table, read-out: IC50 DU145): < 4.00
- pIC50 ([5]; Example 11 table, 96 h): < 4.00
- pIC50 ([6]; Example 11 table): < 4.00
- pIC50 ([2]; LNCaP, Example 11 table, 96 h, read-out: IC50 LNCaP): < 4.00
- pIC50 ([7]; Example 11 table, 96 h): < 4.00
- pIC50 ([8]; Example 11 table): < 4.00

Structure (SMILES): CCCCCCCCCCCCCCCCCCNC[C@H](CO)NC.Cl [drawing 55]
- Time to almost complete inhibition of AKT phosphorylation ([1]; Example 13, 10 μM): ≤ 6 h
- Relative abundance (Pi-AKT/AKT) ([1]; Example 13, 10 μM, 6 h, (−) control 1.00): 0.07
- Relative abundance (Pi-AKT/AKT) ([1]; Example 13, 10 μM, 12 h): 0.31
- Relative abundance (Pi-AKT/AKT) ([1]; Example 13, 10 μM, 24 h): 1.02
- Relative abundance (Pi-AKT/AKT) ([1]; Example 13, 10 μM, 36 h): 0.63
- Relative abundance (Pi-AKT/AKT) ([1]; Example 13, 10 μM, 48 h): 0.94
- pIC50 [2, 9]: 5.48
